From patent US20250145579A1, “PROCESS FOR MANUFACTURING AN LPXC ANALOG” (Zoetis Services LLC, priority 2022, published 2025)
“Also recorded” adds a separate entry of the source.

Experiment: Relative stability of isolated solid forms (slurry experiments, XRD)
Type: physicochemical
Details: for relative stability of the solid form: as isolated solids
Protocol: A number of polymorphic forms of (R)-4-(4-(4-(2H-1,2,3-triazol-2-yl)phenyl)-2-oxopyridin-1 (2H)-yl)-N-hydroxy-2-methyl-2-(methylsulfonyl)-butanamide were prepared (Forms 1, 2 and 3) as API slurries in a number of protic and aprotic solvents. With the exception of acetonitrile, methyl ethyl ketone, and tetrahydrofuran, the use of aprotic solvents like ethyl, butyl or propyl acetate result in Form 1. With the exception of water, the use of protic solvents such as butyl, propyl and ethyl alcohol favor the formation of Form 2. An unstable Form 3 was also noted. The presence of water in alcohols increased the rate of Form 2 isolation from solution. […] The three forms were structurally related and were solvated and/or hydrated.
The relative stability of the three isolated solid forms appears to be different as suspensions compared to isolated solids. […] As suspensions, the relative stability of these solvates is dependent on the solvent or solvent/water mixture that is present.
It is very likely that these three solvated solids are nearly isostructural and differ in subtle ways that are linked to the way solvent or water are packed into the solvation sites in the structure. There is an increasing complexity of the XRD patterns with Form 1 being the most complex (most peaks) and Form 3 having the fewest peaks. This pattern complexity (F1>F2>F3) parallels the apparent stability of the dried isolated samples. Out of 384 solvent mixtures, a total of 90 samples were mixtures rather than pure phase Forms.
The X-ray diffractograms were obtained on a Scintag X1 powder diffractometer equipped with a Peltier cooled solid state detector. Data were collected between 4 and 40° 20 using a 0.03° step size and data acquisition time was 45 to 60 minutes for sample characterization. Data collection for solids isolated from the bulk of the small scale preliminary experiments was at a 0.04° step size over 15 minutes between 7 and 37 degrees 2-theta. Copper Kα radiation (λ=1.54056 Å) was utilized and the tube voltage and amperage were set to 45 kV and 40 mA, respectively. […]

relative stability of the solid form | SMILES | stability of the solid form / form conversion (by XRD patterns of isolated solids from slurries)
most stable form | C[C@@](CCn1ccc(-c2ccc(-n3nccn3)cc2)cc1=O)(C(=O)NO)S(C)(=O)=O [Form 1, (R)-4-(4-(4-(2H-1,2,3-triazol-2-yl)phenyl)-2-oxopyridin-1 (2H)-yl)-N-hydroxy-2-methyl-2-(methylsulfonyl)-butanamide] | 
meta-stable relative to Form 1 | C[C@@](CCn1ccc(-c2ccc(-n3nccn3)cc2)cc1=O)(C(=O)NO)S(C)(=O)=O [Form 2, (R)-4-(4-(4-(2H-1,2,3-triazol-2-yl)phenyl)-2-oxopyridin-1 (2H)-yl)-N-hydroxy-2-methyl-2-(methylsulfonyl)-butanamide] | 
 | C[C@@](CCn1ccc(-c2ccc(-n3nccn3)cc2)cc1=O)(C(=O)NO)S(C)(=O)=O [Form 3, (R)-4-(4-(4-(2H-1,2,3-triazol-2-yl)phenyl)-2-oxopyridin-1 (2H)-yl)-N-hydroxy-2-methyl-2-(methylsulfonyl)-butanamide] | unstable; also recorded: meta-stable and converts to Form 2
